Measured values as given in patent US7884195B2, “Method of extracting ginsengnoside Rg2m, pharmaceutical composition including ginsengnoside Rg2, and uses thereof” (priority 2005, dated 2011).
Marks after values point to notes of the source that are not given here.

Experiments:
[1] = test system: Alzheimer Dementia (AD) model rats injected with beta-amyloid (Aβ1-40) and Ibotenic acid (IBA); test: Y-shaped electronic maze test of learning-memory ability, beta-amyloid (Aβ1-40) dementia model; type: in vivo, rat; set-up: key: number of stimuli needed for 9-10 successive correct responses; conditions: nimodipine 0.05 mg·kg^−1 i.v., once a day, 7 days
Procedure: (§1) This experiment was carried out employing an Alzheimer Dementia (AD) model. 70 rats were divided into 7 groups consisting of 10 rats each and were anesthetized with chloral hydrate. Except for a placebo group, the remaining 6 groups were rendered dementia models by injecting 4 μg of beta-amyloid (Aβ1-40) and 1 μg of Ibotenic acid (IBA) into the hippocampus CA1 region of each rat. The placebo group was infused with an equal amount of physiological saline, instead of beta-amyloid and Ibotenic acid (IBA).
(§2) The above-mentioned dementia model groups were subdivided into a control group to which physiological saline was administered, four experimental groups to which ginsenoside Rg2 was administered and a comparative group to which a medical dementia therapeutic agent, nimodipine was administered. Each group received the corresponding respective reagents via intravenous injection for 7 days, once a day, according to the dosages set forth in Table 7 below. […]
On day 6 of respective reagent administration, animals were subjected to a Y-shaped electronic maze test. Learning-memory ability of rats was determined according to the following method. […] After 24 hours, the stimulus times necessary for 9 to 10-time successive and exact response of rats were recorded again as the order of memory. […]

[2] = test system: hippocampus CA1 nerve cell bodies; test: Niss1 staining, loss of nerve cell bodies, Aβ1-40 dementia model; type: in vivo, rat; conditions: nimodipine 0.05 mg·kg^−1 i.v., once a day, 7 days
Procedure: as §1
as §2, with “below. Herein, reagents, which are administered to experimental groups, are isomeric C-20(S) ginsenoside Rg2 and C-20(R) ginsenoside Rg2, and mixed-type C-20(SR) ginsenoside Rg2 (in the following Tables, referred to as S, R and SR, respectively).” for “below.”

[3] = test system: hippocampus nerve cells; test: TUNEL staining, in situ cell death (apoptosis), Aβ1-40 dementia model; type: in vivo, rat; conditions: nimodipine 0.05 mg·kg^−1 i.v., once a day, 7 days
Procedure: as §1
as §2, with “below. Herein, reagents, which are administered to experimental groups, are isomeric C-20(S) ginsenoside Rg2 and C-20(R) ginsenoside Rg2, and mixed-type C-20(SR) ginsenoside Rg2 (in the following Tables, referred to as S, R and SR, respectively).” for “below.”

[4] = test system: Bax; test: Expression of Bax in hippocampus, Aβ1-40 dementia model; type: in vivo, rat; conditions: nimodipine 0.05 mg·kg^−1 i.v., 7 days; 10 rats per group
Procedure: as §1
(§3) The above-mentioned dementia model groups were subdivided into a control group to which physiological saline was administered, four experimental groups to which ginsenoside Rg2 was administered and a comparative group to which a medical dementia therapeutic agent, nimodipine was administered. Each group received the corresponding respective reagents via intravenous injection for 7 days, once a day, according to the dosages set forth in Table 7 below. Herein, reagents, which are administered to experimental groups, are isomeric C-20(S) ginsenoside Rg2 and C-20(R) ginsenoside Rg2, and mixed-type C-20(SR) ginsenoside Rg2 (in the following Tables, referred to as S, R and SR, respectively).
(§4) In addition, 24 hours after examination of learning-memory ability, the front and rear of the injected site of the hippocampus CA1 region were successively sliced and subjected to Niss1 staining, HE staining, and chemical examination of immune tissues and in situ cell death, thereby observing morphological changes of hippocampus neuron cell zones, necrosis, degree of cell loss, rate of cell death, and degree of expression of Bax/Bcl-2 and C-fos genes.

[5] = test system: Bcl-2; test: Expression of Bcl-2 in hippocampus, Aβ1-40 dementia model; type: in vivo, rat; conditions: nimodipine 0.05 mg·kg^−1 i.v., 7 days; 10 rats per group
Procedure: as §1, §3, §4

[6] = test system: C-fos; test: Expression of C-fos in hippocampus, Aβ1-40 dementia model; type: in vivo, rat; conditions: nimodipine 0.05 mg·kg^−1 i.v., 7 days; 10 rats per group
Procedure: as §1, §3, §4

[7] = test system: multiple infarct dementia (MID) model rats; test: Y-shaped electronic maze test of learning-memory ability, multiple infarct dementia (MID) model; type: in vivo, rat; set-up: key: stimuli needed for 9-10 successive correct responses (memory: 24 h later); conditions: nimodipine 0.05 mg·kg^−1 i.v., once a day, 7 days
Procedure: On day 6 of respective reagent administration, animals were subjected to a Y-shaped electronic maze test. Learning-memory ability of rats was determined according to the following method. Firstly, the order of learning is taken as the number of stimulus times necessary for 9 to 10-time successive and exact response of rats. After 24 hours, the stimulus times necessary for 9 to 10-time successive and exact response of rats were recorded again as the order of memory. Based on the recordings thus obtained, a t-test was made between respective groups.
This experiment was carried out employing a multiple infarct dementia (MID) model. 56 rats were divided into 7 groups consisting of 8 rats each and were anesthetized with 10% chloral hydrate. Except for a placebo group, the remaining 6 groups were established as dementia models by injecting 0.13 ml/100 g of a composite thrombosis-inducing agent into the carotid artery of each rat, restoring anatomical structures thereof and suturing skins along layers. The placebo group was injected with an equal amount of physiological saline, instead of the composite thrombosis-inducing agent. […]
On day 6 of respective reagent administration, learning-memory ability of animals was determined according to the same manner as in Experimental Example 1.

[8] = test system: glutamate (Glu); test: Glu-positive neurons in CPU region, MID model; type: in vivo, rat; conditions: nimodipine 0.05 mg·kg^−1 i.v., once a day, 7 days
Procedure: (§5) This experiment was carried out employing a multiple infarct dementia (MID) model. 56 rats were divided into 7 groups consisting of 8 rats each and were anesthetized with 10% chloral hydrate. Except for a placebo group, the remaining 6 groups were established as dementia models by injecting 0.13 ml/100 g of a composite thrombosis-inducing agent into the carotid artery of each rat, restoring anatomical structures thereof and suturing skins along layers. The placebo group was injected with an equal amount of physiological saline, instead of the composite thrombosis-inducing agent.
as §3, with “The above” for “The above-mentioned”, “to” for “to the”, “Table 12” for “Table 7”, “following experiments,” for “following Tables,”, “respectively). […]” for “respectively).”

[9] = test system: Bax; test: Bax-positive neurons in CPU region, MID model; type: in vivo, rat; conditions: nimodipine 0.05 mg·kg^−1 i.v., once a day, 7 days
Procedure: as §5
as §3, with “The above” for “The above-mentioned”, “to” for “to the”, “Table 12” for “Table 7”, “following experiments,” for “following Tables,”, “respectively). […]” for “respectively).”

[10] = test system: Caspase-3; test: Caspase-3-positive neurons in CPU region, MID model; type: in vivo, rat; conditions: nimodipine 0.05 mg·kg^−1 i.v., once a day, 7 days
Procedure: as §5
as §3, with “The above” for “The above-mentioned”, “to” for “to the”, “Table 12” for “Table 7”, “following experiments,” for “following Tables,”, “respectively). […]” for “respectively).”

[11] = test system: Calpain II; test: Calpain II-positive neurons in CPU region, MID model; type: in vivo, rat; conditions: nimodipine 0.05 mg·kg^−1 i.v., once a day, 7 days
Procedure: as §5
as §3, with “The above” for “The above-mentioned”, “to” for “to the”, “Table 12” for “Table 7”, “following experiments,” for “following Tables,”, “respectively). […]” for “respectively).”

[12] = test system: PC12 cells; test: MTT metabolism after glutamic acid damage of PC12 cells; type: cell-based; conditions: nimodipine 5 pmol; 1 mmol/L glutamic acid, 20 hours; OD at 490 nm
Procedure: 100 μl/well of PC12 culture having a cell density of 10^5 cells/mL was inoculated into a 96-well plate and PC12 cells were allowed to adhere to walls of the plate. Wells were divided into 6 groups to which 6 wells were assigned each.
A serum-free medium was added to a non-treatment group, 1 mmol/L of a serum-free medium containing glutamic acid and an equal volume (1 mmol/L) of 20% 1,2-polyethylene glycol were added to a control group, 1 mmol/L of a serum-free medium containing glutamic acid and 0.1 mmol/L of respective structures of ginsenoside Rg2 were added to experimental groups, and 5 pmol of nimodipine, instead of ginsenoside Rg2, was added to a comparative group. Then, PC12 cells of respective groups were cultured at 37° C. for 20 hours.
20 μl/well of MTT (5 g/L) was added to respective groups and cells were continuously cultured at 37° C. for 4 hours. Then, the original medium was aspirated, and 0.1 ml/well of dimethyl sulfoxide (DMSO) was added to dissolve red granules. Next, optical density (OD) at 490 nm was measured using an enzyme-linked immuno-assay and then a t-test was made between groups.

`COCCOC(=O)C1=C(C)NC(C)=C(C(=O)OC(C)C)C1c1cccc([N+](=O)[O-])c1` (centres unmarked) [Nimodipine, nimodipine, reference compound] was tested. Which “Order of Memory” value ([1]; 24 hours after learning) did it give?
Its value is 4.10 ± 4.80.

And the “Order of Learning” value ([1]; test on day 6)?
The value was 8.60 ± 4.58.

What about the “Length of nerve cell body loss” value [2] of the same compound?
The value was 259.14 ± 60.36 μm.

And the “Rate of nerve cell death” value [3]?
The value was 19.83 ± 2.93.

And the “Expression Intensity of bax, count at grade +” value [4]?
The value was 7.

And the “Expression Intensity of bax, count at grade ++” value [4]?
The value was 3.

What about the “Expression Intensity of bax, count at grade +++” value [4] of the same compound?
The value was 0**.

What about the “Expression Intensity of bax, count at grade −” value [4] of the same compound?
Its value is 0.

What about the “Expression Intensity of bcl-2, count at grade +” value [5] of the same compound?
Its value is 5.

What about the “Expression Intensity of bcl-2, count at grade ++” value [5] of the same compound?
The value was 4.

And the “Expression Intensity of bcl-2, count at grade +++” value [5]?
Its value is 1**.

What about the “Expression Intensity of bcl-2, count at grade −” value [5] of the same compound?
The value was 0.

What about the “Expression Intensity of C-fos, count at grade +” value [6] of the same compound?
Its value is 3.

What about the “Expression Intensity of C-fos, count at grade ++” value [6] of the same compound?
The value was 4.

What about the “Expression Intensity of C-fos, count at grade +++” value [6] of the same compound?
Its value is 3*.

What about the “Expression Intensity of C-fos, count at grade −” value [6] of the same compound?
The value was 0.

What about the “Order of Memory” value [7] of the same compound?
The value was 0.0 ± 0.0.

What about the “Order of Learning” value ([7]; test on day 6) of the same compound?
The value was 2.5 ± 3.70.

What about the “Number of Glu-positive cells” value [8] of the same compound?
The value was 11.8 ± 3.89.

And the “Number of Bax-positive cells” value [9]?
Its value is 3.2 ± 2.47.

What about the “Number of Caspase-3 positive cells” value [10] of the same compound?
Its value is 2.3 ± 2.72.

What about the “Number of Calpain II-positive cells” value [11] of the same compound?
The value was 3.9 ± 0.67.

And the “MTT (OD)” value [12]?
The value was 0.086 ± 0.017.
